Test results reported in patent US7964531B2, “3-phenoxy-4-pyridazinol derivatives and herbicidal composition containing the same” (Mitsui Chemicals Agro, Inc., priority 2001, dated 2011).

Experiments:
Type in all cases: in vivo
Conditions in all cases: wettable powder applied 3 days after transplanting, judged after 25 days
Cyperus serotinus = assay: Test Example 1: herbicidal effects, paddy-field pot test
Experimental: (§1) A paddy soil was filled in 1/10,000 are pot, and seeds of barnyardgrass (Echinochloa oryzicola Vasing.), Scirpus joncoides and annual broad-leaved weeds (Lindernia spp., Rotala indica) which are awaken from dormancy were mixed at the surface layer of 1 cm. Also, tuber of Cyperus serotinus which is germinated was planted, and further seedlings of paddy-field rice at 2.2-leaf stage were transplanted, and they were grown under the flooded condition in a greenhouse. After 3 days from transplanting, a predetermined chemical dosage of the wettable powder prepared in accordance with Preparation example 1 was diluted in water, and the solution was applied to the pot and herbicidal effects and crop injury against transplanted paddy-field rice were judged after 25 days from the treatment. Also, 3-(2-allylphenoxy)-6-chloro-4-methoxypyridazine described in Chemical Pharmaceutical Bulletin, 1972, vol. 20, No. 10, pp. 2191-2203 was used as Comparative compound. Incidentally, herbicidal effects and crop injury against transplanted paddy-field rice were judged by the following judgment standard, and “-” in the table means no test was carried out.
(§2) Judgment Standard • 0: Growth inhibition rate; 0 to 10% • 1: Growth inhibition rate; 11 to 30% • 2: Growth inhibition rate; 31 to 50% • 3: Growth inhibition rate; 51 to 70% • 4: Growth inhibition rate; 71 to 90% • 5: Growth inhibition rate; 91 to 100%.

Scirpus joncoides = assay: as above
Experimental: as §1, §2

[1] = test system: annual broad-leaved weeds (Lindernia spp., Rotala indica); assay: as above
Experimental: as §1, §2

[2] = test system: barnyardgrass (Echinochloa oryzicola Vasing.); assay: as above
Experimental: as §1, §2

[3] = test system: transplanted paddy-field rice; assay: Test Example 1: crop injury against transplanted paddy-field rice
Experimental: as §1, §2

SMILES | Herbicidal effects Cyperus serotinus (Cyperus serotinus; chemical dosage 10 g/a) | Herbicidal effects Cyperus serotinus (Cyperus serotinus; chemical dosage 20 g/a) | Herbicidal effects Scirpus joncoides (Scirpus joncoides; chemical dosage 10 g/a) | Herbicidal effects Scirpus joncoides (Scirpus joncoides; chemical dosage 20 g/a) | Herbicidal effects Broad leaf ([1]; chemical dosage 10 g/a) | Herbicidal effects Broad leaf ([1]; chemical dosage 20 g/a) | Herbicidal effects Barnyard grass ([2]; chemical dosage 10 g/a) | Herbicidal effects Barnyard grass ([2]; chemical dosage 20 g/a) | Crop injury against transplanted rice ([3]; chemical dosage 10 g/a) | Crop injury against transplanted rice ([3]; chemical dosage 20 g/a) | Herbicidal effects Cyperus serotinus (Cyperus serotinus; chemical dosage 12.5 g/a) | Herbicidal effects Cyperus serotinus (Cyperus serotinus; chemical dosage 25 g/a) | Herbicidal effects Scirpus joncoides (Scirpus joncoides; chemical dosage 12.5 g/a) | Herbicidal effects Scirpus joncoides (Scirpus joncoides; chemical dosage 25 g/a) | Herbicidal effects Broad leaf ([1]; chemical dosage 12.5 g/a) | Herbicidal effects Broad leaf ([1]; chemical dosage 25 g/a) | Herbicidal effects Barnyard grass ([2]; chemical dosage 12.5 g/a) | Herbicidal effects Barnyard grass ([2]; chemical dosage 25 g/a) | Crop injury against transplanted rice ([3]; chemical dosage 12.5 g/a) | Crop injury against transplanted rice ([3]; chemical dosage 25 g/a)
Cc1ccc(S(=O)(=O)Oc2cc(Cl)nnc2Oc2ccccc2C2CC2)cc1 [Example 27] | 5 (Growth inhibition rate; 91 to 100%) | 5 (Growth inhibition rate; 91 to 100%) | 4 (Growth inhibition rate; 71 to 90%) | 5 (Growth inhibition rate; 91 to 100%) | 5 (Growth inhibition rate; 91 to 100%) | 5 (Growth inhibition rate; 91 to 100%) | 2 (Growth inhibition rate; 31 to 50%) | 4 (Growth inhibition rate; 71 to 90%) | 0 (Growth inhibition rate; 0 to 10%) | 0 (Growth inhibition rate; 0 to 10%) | – | – | – | – | – | – | – | – | – | –
Cc1ccccc1Oc1nnc(Br)cc1O [Example 34] | 5 (Growth inhibition rate; 91 to 100%) | 5 (Growth inhibition rate; 91 to 100%) | 2 (Growth inhibition rate; 31 to 50%) | 4 (Growth inhibition rate; 71 to 90%) | 2 (Growth inhibition rate; 31 to 50%) | 4 (Growth inhibition rate; 71 to 90%) | 1 (Growth inhibition rate; 11 to 30%) | 2 (Growth inhibition rate; 31 to 50%) | 0 (Growth inhibition rate; 0 to 10%) | 0 (Growth inhibition rate; 0 to 10%) | – | – | – | – | – | – | – | – | – | –
Oc1cc(Cl)nnc1Oc1ccccc1F [Example 49] | – | – | – | – | – | – | – | – | – | – | 5 (Growth inhibition rate; 91 to 100%) | 5 (Growth inhibition rate; 91 to 100%) | 3 (Growth inhibition rate; 51 to 70%) | 4 (Growth inhibition rate; 71 to 90%) | 3 (Growth inhibition rate; 51 to 70%) | 5 (Growth inhibition rate; 91 to 100%) | 1 (Growth inhibition rate; 11 to 30%) | 2 (Growth inhibition rate; 31 to 50%) | 0 (Growth inhibition rate; 0 to 10%) | 0 (Growth inhibition rate; 0 to 10%)
Oc1cc(Cl)nnc1Oc1ccccc1Cl [Example 50] | – | – | – | – | – | – | – | – | – | – | 5 (Growth inhibition rate; 91 to 100%) | 5 (Growth inhibition rate; 91 to 100%) | 3 (Growth inhibition rate; 51 to 70%) | 4 (Growth inhibition rate; 71 to 90%) | 5 (Growth inhibition rate; 91 to 100%) | 5 (Growth inhibition rate; 91 to 100%) | 2 (Growth inhibition rate; 31 to 50%) | 3 (Growth inhibition rate; 51 to 70%) | 0 (Growth inhibition rate; 0 to 10%) | 0 (Growth inhibition rate; 0 to 10%)
Oc1cc(Cl)nnc1Oc1ccccc1Br [Example 51] | – | – | – | – | – | – | – | – | – | – | 5 (Growth inhibition rate; 91 to 100%) | 5 (Growth inhibition rate; 91 to 100%) | 3 (Growth inhibition rate; 51 to 70%) | 5 (Growth inhibition rate; 91 to 100%) | 4 (Growth inhibition rate; 71 to 90%) | 5 (Growth inhibition rate; 91 to 100%) | 2 (Growth inhibition rate; 31 to 50%) | 2 (Growth inhibition rate; 31 to 50%) | 0 (Growth inhibition rate; 0 to 10%) | 0 (Growth inhibition rate; 0 to 10%)
Oc1cc(Cl)nnc1Oc1ccccc1I [Example 52] | 5 (Growth inhibition rate; 91 to 100%) | 5 (Growth inhibition rate; 91 to 100%) | 5 (Growth inhibition rate; 91 to 100%) | 5 (Growth inhibition rate; 91 to 100%) | 5 (Growth inhibition rate; 91 to 100%) | 5 (Growth inhibition rate; 91 to 100%) | 3 (Growth inhibition rate; 51 to 70%) | 4 (Growth inhibition rate; 71 to 90%) | 0 (Growth inhibition rate; 0 to 10%) | 0 (Growth inhibition rate; 0 to 10%) | – | – | – | – | – | – | – | – | – | –
CCc1ccccc1Oc1nnc(Cl)cc1O [Example 55] | – | – | – | – | – | – | – | – | – | – | 5 (Growth inhibition rate; 91 to 100%) | 5 (Growth inhibition rate; 91 to 100%) | 3 (Growth inhibition rate; 51 to 70%) | 4 (Growth inhibition rate; 71 to 90%) | 5 (Growth inhibition rate; 91 to 100%) | 5 (Growth inhibition rate; 91 to 100%) | 2 (Growth inhibition rate; 31 to 50%) | 2 (Growth inhibition rate; 31 to 50%) | 0 (Growth inhibition rate; 0 to 10%) | 0 (Growth inhibition rate; 0 to 10%)
CCCc1ccccc1Oc1nnc(Cl)cc1O [Example 56] | – | – | – | – | – | – | – | – | – | – | 4 (Growth inhibition rate; 71 to 90%) | 4 (Growth inhibition rate; 71 to 90%) | 2 (Growth inhibition rate; 31 to 50%) | 3 (Growth inhibition rate; 51 to 70%) | 4 (Growth inhibition rate; 71 to 90%) | 5 (Growth inhibition rate; 91 to 100%) | 0 (Growth inhibition rate; 0 to 10%) | 0 (Growth inhibition rate; 0 to 10%) | 0 (Growth inhibition rate; 0 to 10%) | 0 (Growth inhibition rate; 0 to 10%)
CC(C)c1ccccc1Oc1nnc(Cl)cc1O [Example 57] | – | – | – | – | – | – | – | – | – | – | 5 (Growth inhibition rate; 91 to 100%) | 5 (Growth inhibition rate; 91 to 100%) | 3 (Growth inhibition rate; 51 to 70%) | 4 (Growth inhibition rate; 71 to 90%) | 5 (Growth inhibition rate; 91 to 100%) | 5 (Growth inhibition rate; 91 to 100%) | 2 (Growth inhibition rate; 31 to 50%) | 2 (Growth inhibition rate; 31 to 50%) | 0 (Growth inhibition rate; 0 to 10%) | 0 (Growth inhibition rate; 0 to 10%)
CC(C)(C)c1ccccc1Oc1nnc(Cl)cc1O [Example 61] | – | – | – | – | – | – | – | – | – | – | 5 (Growth inhibition rate; 91 to 100%) | 5 (Growth inhibition rate; 91 to 100%) | 5 (Growth inhibition rate; 91 to 100%) | 5 (Growth inhibition rate; 91 to 100%) | 5 (Growth inhibition rate; 91 to 100%) | 5 (Growth inhibition rate; 91 to 100%) | 1 (Growth inhibition rate; 11 to 30%) | 2 (Growth inhibition rate; 31 to 50%) | 0 (Growth inhibition rate; 0 to 10%) | 0 (Growth inhibition rate; 0 to 10%)
CC1CC1c1ccccc1Oc1nnc(Cl)cc1O (stereo not shown) [Example 72] | 4 (Growth inhibition rate; 71 to 90%) | 5 (Growth inhibition rate; 91 to 100%) | 5 (Growth inhibition rate; 91 to 100%) | 5 (Growth inhibition rate; 91 to 100%) | 5 (Growth inhibition rate; 91 to 100%) | 5 (Growth inhibition rate; 91 to 100%) | 3 (Growth inhibition rate; 51 to 70%) | 3 (Growth inhibition rate; 51 to 70%) | 0 (Growth inhibition rate; 0 to 10%) | 0 (Growth inhibition rate; 0 to 10%) | – | – | – | – | – | – | – | – | – | –
Oc1cc(Cl)nnc1Oc1ccccc1C1CCC1 [Example 85] | 5 (Growth inhibition rate; 91 to 100%) | – | 3 (Growth inhibition rate; 51 to 70%) | – | 4 (Growth inhibition rate; 71 to 90%) | – | 2 (Growth inhibition rate; 31 to 50%) | – | 0 (Growth inhibition rate; 0 to 10%) | – | – | – | – | – | – | – | – | – | – | –
